Measurements: ChEMBL document CHEMBL1201862, “PubChem BioAssay data set” (2004)
Activity calls are given as the source filed them.

How the values were obtained:
[1] = Fluorescence Cell-Based Dose Response to Identify Inhibitors of Thrombin Receptor-Activating Peptide SFLLRN-Mediated P-Selectin Induction on Platelets. [Related pubchem assays: 1663 (Primary HTS), 1889 (retest at dose ), 1891 (counterscreen), 1678 (Project Summary)]; type: functional
[2] = Luminescence Cell-Based Dose Confirmation HTS to Identify Inhibitors of Platelet Dense Granule Release. [Related pubchem assays: 1663 (Primary HTS), 1678 (Summary of Project)]; type: functional
[3] = biological target: Luciferin 4-monooxygenase (Photinus pyralis, UniProt P08659); experiment: firefly luciferase enzyme inhibitors, dose response, biochemical, luminescence (AID 1891)
Chain of Luciferin 4-monooxygenase (P08659 whole entry, the tested form may be a part): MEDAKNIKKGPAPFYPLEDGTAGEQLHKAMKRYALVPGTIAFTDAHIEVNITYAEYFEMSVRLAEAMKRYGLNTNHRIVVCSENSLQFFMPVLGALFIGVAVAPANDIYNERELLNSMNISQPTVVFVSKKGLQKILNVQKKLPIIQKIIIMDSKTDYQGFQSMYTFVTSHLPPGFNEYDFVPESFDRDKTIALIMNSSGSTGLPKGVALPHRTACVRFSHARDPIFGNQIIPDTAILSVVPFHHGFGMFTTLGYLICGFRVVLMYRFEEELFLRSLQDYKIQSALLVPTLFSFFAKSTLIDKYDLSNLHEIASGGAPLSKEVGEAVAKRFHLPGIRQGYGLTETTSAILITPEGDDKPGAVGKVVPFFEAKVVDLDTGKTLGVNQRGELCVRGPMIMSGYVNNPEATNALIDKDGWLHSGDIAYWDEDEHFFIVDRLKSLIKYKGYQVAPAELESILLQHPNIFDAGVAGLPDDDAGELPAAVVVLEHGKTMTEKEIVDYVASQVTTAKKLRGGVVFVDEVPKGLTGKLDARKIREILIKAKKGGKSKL

Estrogen receptor = biological target: T1, Estrogen receptor (Homo sapiens, UniProt P03372); experiment: potentiators of ERα–SRC-1 coactivator binding, dose response, biochemical, TR-FRET, ERα LBD (AID 737)
T1 sequence (P03372 whole entry): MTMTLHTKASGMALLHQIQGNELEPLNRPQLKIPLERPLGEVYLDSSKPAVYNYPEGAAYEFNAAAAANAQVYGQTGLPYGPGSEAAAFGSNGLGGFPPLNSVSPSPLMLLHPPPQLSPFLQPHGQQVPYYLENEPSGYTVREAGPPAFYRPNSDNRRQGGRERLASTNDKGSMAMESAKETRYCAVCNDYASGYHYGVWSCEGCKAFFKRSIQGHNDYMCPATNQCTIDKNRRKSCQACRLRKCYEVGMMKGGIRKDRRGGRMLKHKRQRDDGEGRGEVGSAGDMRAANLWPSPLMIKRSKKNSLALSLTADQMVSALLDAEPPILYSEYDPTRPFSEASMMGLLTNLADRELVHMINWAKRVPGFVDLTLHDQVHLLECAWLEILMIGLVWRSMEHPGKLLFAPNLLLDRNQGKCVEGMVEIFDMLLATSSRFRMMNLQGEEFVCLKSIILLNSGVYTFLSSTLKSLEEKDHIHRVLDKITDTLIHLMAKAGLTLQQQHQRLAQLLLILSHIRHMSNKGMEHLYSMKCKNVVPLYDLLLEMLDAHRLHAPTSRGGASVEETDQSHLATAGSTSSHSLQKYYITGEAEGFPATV

[4] = biological target: Protein-tyrosine kinase 2-beta (Homo sapiens, UniProt Q14289);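 also: potency of inhibitors of PYK2 kinase phosphorylation of poly-GT substrate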
Chain of Protein-tyrosine kinase 2-beta (Q14289 whole entry): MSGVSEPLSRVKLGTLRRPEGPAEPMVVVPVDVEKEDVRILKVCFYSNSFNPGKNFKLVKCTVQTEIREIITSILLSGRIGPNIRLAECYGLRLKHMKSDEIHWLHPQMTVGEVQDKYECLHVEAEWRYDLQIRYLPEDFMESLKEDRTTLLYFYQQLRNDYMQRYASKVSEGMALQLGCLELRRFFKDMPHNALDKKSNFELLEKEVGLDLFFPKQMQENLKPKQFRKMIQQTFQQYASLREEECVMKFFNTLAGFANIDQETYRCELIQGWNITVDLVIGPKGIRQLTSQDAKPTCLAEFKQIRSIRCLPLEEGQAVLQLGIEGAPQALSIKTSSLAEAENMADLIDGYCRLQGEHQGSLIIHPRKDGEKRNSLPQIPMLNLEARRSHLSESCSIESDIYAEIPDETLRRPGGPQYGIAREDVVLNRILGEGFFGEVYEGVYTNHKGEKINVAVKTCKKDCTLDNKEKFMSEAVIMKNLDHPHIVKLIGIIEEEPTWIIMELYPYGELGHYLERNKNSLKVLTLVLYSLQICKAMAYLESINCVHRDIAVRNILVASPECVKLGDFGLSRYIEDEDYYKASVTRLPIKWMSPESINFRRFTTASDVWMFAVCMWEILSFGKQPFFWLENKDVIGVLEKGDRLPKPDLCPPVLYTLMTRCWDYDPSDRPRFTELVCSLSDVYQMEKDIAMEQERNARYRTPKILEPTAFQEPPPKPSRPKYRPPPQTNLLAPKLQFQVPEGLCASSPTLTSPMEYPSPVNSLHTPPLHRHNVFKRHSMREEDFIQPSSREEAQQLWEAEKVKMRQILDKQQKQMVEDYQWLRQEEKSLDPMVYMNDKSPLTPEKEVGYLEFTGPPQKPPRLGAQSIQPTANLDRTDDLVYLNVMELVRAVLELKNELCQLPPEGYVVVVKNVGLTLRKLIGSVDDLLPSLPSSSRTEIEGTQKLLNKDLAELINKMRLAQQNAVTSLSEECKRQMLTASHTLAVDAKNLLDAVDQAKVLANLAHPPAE

[5] = biological target: Induced myeloid leukemia cell differentiation protein Mcl-1 (Homo sapiens, UniProt Q07820); experiment: MCL1-BIM BH3 interaction inhibitors, dose response, biochemical, fluorescence polarization, BIM-BH3 peptide, 1536-well (AID 2217)
Chain of Induced myeloid leukemia cell differentiation protein Mcl-1 (Q07820 whole entry): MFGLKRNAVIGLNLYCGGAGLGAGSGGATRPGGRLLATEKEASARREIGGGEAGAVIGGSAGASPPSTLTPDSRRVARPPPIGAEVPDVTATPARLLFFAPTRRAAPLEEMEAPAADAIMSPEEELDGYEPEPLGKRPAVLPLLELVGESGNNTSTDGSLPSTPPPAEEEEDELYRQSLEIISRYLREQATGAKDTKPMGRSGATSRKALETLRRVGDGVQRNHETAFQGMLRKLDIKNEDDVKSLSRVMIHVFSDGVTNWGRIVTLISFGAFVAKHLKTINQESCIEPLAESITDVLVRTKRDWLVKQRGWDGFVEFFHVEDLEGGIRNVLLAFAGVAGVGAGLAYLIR

Bcl-2-like protein 1 = Bcl-2-like protein 1 (Homo sapiens, UniProt Q07817); experiment: BCL-XL inhibitors, dose response, selectivity assay for MCL1 inhibitor project, biochemical, fluorescence polarization, 1536-well (AID 2218)
Chain of Bcl-2-like protein 1 (Q07817 whole entry): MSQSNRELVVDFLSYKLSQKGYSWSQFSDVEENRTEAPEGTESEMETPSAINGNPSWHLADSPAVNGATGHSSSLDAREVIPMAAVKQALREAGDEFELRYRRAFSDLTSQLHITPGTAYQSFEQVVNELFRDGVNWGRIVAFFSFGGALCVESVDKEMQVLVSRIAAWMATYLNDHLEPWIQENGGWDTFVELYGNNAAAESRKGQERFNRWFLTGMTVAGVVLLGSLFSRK

Genome polyprotein = Genome polyprotein (Hepatitis C virus, UniProt Q2Q167); experiment: HCV core protein dimerization inhibitors, dose response, biochemical, TR-FRET (AID 2159); set-up: species or system Hepacivirus hominis;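 also: blocks dimerization of HCV core protein measured by TR-FRET between tagged core106 pairs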
Chain of Genome polyprotein (Q2Q167 whole entry): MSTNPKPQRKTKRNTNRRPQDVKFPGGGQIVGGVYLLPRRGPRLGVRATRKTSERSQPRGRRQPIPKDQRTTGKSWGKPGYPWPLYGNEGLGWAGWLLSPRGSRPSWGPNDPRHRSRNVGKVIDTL

[6] = biological target: Photoreceptor-specific nuclear receptor (Homo sapiens, UniProt Q9Y5X4); experiment: NR2E3 inverse agonists, dose response, biochemical, TR-FRET (AID 463256); type: functional
Chain of Photoreceptor-specific nuclear receptor (Q9Y5X4 whole entry): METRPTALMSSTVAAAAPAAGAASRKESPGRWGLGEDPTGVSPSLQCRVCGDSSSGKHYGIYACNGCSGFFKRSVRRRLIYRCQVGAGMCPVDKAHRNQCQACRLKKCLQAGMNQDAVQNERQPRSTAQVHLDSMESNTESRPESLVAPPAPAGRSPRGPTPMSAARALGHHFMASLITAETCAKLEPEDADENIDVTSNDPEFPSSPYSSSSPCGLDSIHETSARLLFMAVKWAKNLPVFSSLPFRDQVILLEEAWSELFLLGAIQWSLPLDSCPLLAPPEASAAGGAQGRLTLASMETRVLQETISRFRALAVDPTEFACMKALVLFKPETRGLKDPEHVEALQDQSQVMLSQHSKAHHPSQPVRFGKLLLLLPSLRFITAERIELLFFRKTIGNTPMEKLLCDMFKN

[7] = biological target: Peroxisome proliferator-activated receptor gamma/Nuclear receptor corepressor 2 (Homo sapiens, UniProt P37231+Q9Y618); experiment: Counterscreen for NR2E3 inverse agonists: TR-FRET-based biochemical high throughput dose response assay to identify inverse agonists of the interaction between peroxisome proliferator-activated receptor gamma (PPARg) and nuclear receptor co-repressor 2 (NCOR2).; type: functional
[8] = biological target: Voltage-gated inwardly rectifying potassium channel KCNH2 (Homo sapiens, UniProt Q12809); experiment: hERG protection from proarrhythmic block, potency, dose response, cell-based, thallium flux (AID 2121); type: ADME
Chain of Voltage-gated inwardly rectifying potassium channel KCNH2 (Q12809 whole entry): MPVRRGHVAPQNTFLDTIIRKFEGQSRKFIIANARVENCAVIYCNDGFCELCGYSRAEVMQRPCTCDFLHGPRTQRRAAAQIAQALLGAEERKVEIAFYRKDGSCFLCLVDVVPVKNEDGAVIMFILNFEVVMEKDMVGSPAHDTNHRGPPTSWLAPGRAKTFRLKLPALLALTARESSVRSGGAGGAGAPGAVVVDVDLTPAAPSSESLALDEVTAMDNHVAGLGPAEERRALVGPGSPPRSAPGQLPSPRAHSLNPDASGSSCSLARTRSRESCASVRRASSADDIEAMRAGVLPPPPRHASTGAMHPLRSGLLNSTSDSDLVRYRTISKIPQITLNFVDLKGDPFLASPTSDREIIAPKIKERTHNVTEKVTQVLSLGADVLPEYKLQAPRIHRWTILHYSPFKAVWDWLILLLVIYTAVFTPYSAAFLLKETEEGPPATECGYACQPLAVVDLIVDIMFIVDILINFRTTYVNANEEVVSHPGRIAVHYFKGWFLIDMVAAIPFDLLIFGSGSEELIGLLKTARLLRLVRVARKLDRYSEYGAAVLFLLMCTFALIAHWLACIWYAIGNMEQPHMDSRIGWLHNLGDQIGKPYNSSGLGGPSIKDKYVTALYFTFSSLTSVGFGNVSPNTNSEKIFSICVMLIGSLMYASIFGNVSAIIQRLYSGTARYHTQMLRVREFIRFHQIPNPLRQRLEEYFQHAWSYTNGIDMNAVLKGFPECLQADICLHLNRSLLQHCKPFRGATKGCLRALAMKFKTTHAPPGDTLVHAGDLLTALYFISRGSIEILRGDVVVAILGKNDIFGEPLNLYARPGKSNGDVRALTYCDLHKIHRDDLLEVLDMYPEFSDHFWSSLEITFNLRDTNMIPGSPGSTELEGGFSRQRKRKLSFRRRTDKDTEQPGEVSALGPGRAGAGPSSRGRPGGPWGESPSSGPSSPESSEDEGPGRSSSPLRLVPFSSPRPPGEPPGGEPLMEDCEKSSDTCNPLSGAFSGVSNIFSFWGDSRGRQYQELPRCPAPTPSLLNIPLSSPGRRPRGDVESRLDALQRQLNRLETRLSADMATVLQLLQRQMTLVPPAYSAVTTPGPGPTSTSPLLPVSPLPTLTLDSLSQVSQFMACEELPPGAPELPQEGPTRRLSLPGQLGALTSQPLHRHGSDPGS

[9] = biological target: T2, Tyrosine-protein phosphatase non-receptor type 7 (Homo sapiens, UniProt P35236); experiment: inhibitors of human HePTP phosphatase, […], biochemical, absorbance, leukemia target (AID 521); type: functional
T2 sequence (P35236 whole entry): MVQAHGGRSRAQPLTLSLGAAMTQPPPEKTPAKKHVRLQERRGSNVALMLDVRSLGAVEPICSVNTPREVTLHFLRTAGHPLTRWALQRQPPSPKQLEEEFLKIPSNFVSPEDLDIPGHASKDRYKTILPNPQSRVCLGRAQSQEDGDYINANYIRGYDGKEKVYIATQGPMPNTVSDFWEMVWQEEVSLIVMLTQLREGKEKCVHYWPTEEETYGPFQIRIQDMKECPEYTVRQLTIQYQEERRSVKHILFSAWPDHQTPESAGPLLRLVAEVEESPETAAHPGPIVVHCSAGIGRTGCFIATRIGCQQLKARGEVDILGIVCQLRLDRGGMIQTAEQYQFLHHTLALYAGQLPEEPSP

[10] = cytotoxicity toward DRD oncogenic fibroblasts, dose response, cell-based, non-viral oncogenic, luminescence (AID 1934); type: functional; conditions: Homo sapiens
BJ [11] = experiment: cytotoxicity toward BJ-TERT-LT-ST fibroblasts, dose response, cell-based, RAS-independent, luminescence (AID 1935); type: functional; conditions: Homo sapiens;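 also: BJ fibroblasts immortalized with TERT plus LT and ST oncogenes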
BJ [12] = experiment: cytotoxicity toward BJ-TERT fibroblasts, dose response, cell-based, RAS-independent, luminescence (AID 1933); type: functional; conditions: Homo sapiens
[13] = Luminescence-based dose response cell-based high throughput screening assay for cytotoxic compounds using the IEC-6 intestinal epithelial cell line. [Related pubchem assays: 1858 (Summary AID.), 1825 (Counterscreen.), 1907 (Confirmation screen.)]; type: functional
BJ [14] = experiment: cells; type: functional, cell-based; conditions: Homo sapiens
NADPH oxidase 1 = biological target: T3, NADPH oxidase 1 (Homo sapiens, UniProt Q9Y5S8); experiment: Late-stage luminescence-based cell-based dose response assay to identify inhibitors of NADPH oxidase 1 (NOX1): Purchased analogs 2.; type: functional
T3 sequence (Q9Y5S8 whole entry): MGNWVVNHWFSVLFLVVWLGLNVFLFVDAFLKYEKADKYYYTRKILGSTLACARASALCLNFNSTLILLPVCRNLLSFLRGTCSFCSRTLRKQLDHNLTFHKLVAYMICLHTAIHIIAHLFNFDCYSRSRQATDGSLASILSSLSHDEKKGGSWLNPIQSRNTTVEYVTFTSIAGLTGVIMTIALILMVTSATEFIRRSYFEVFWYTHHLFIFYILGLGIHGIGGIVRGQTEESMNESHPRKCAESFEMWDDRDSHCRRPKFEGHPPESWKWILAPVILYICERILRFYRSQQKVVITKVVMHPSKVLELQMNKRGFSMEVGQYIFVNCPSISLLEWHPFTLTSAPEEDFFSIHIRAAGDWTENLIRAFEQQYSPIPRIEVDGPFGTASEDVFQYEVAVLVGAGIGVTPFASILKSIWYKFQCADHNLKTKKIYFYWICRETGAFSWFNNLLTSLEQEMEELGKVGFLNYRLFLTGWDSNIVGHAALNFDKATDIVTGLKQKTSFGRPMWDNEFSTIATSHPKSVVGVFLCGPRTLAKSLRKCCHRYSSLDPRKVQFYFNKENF

[15] = biological target: Diphosphomevalonate decarboxylase (Streptococcus pneumoniae serotype 2 (strain D39 / NCTC 7466), UniProt Q9FD53); experiment: S. pneumoniae DPM-DC inhibition retest, confirmation, biochemical, cuvette format, coupled NADH fluorescence (AID 1028); type: functional
Chain of Diphosphomevalonate decarboxylase (Q9FD53 whole entry): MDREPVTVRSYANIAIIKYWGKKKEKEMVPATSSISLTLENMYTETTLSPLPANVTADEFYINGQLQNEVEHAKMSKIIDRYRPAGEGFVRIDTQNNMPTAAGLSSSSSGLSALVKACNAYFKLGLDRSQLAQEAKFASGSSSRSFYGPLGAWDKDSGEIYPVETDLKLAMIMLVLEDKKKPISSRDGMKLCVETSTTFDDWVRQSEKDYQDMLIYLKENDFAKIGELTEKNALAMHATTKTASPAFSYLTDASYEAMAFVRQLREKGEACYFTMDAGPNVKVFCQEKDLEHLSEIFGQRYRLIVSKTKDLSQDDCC

[16] = biological target: T4, High affinity choline transporter 1 (Homo sapiens, UniProt Q9GZV3); experiment: CHT inhibitors, dose response, cell-based, 10-point CRC, membrane potential dye (AID 588401); type: functional;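 also: membrane potential dye fluorescence of choline-evoked depolarization via CHT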
T4 sequence (Q9GZV3 whole entry): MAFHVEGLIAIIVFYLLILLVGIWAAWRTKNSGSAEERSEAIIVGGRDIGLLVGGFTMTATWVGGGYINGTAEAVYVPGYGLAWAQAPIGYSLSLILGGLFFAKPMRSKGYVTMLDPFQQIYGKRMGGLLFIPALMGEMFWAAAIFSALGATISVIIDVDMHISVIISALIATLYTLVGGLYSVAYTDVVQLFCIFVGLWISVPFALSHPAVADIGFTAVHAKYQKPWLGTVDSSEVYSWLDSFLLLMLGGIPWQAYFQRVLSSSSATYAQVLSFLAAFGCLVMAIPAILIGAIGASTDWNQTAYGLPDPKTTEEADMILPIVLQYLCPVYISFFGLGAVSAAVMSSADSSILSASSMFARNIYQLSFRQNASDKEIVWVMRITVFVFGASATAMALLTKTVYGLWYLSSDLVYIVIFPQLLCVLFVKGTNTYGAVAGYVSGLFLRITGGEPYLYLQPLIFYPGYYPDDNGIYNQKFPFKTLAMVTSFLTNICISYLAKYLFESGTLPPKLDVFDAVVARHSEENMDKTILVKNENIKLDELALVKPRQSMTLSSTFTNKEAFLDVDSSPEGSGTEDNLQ

Vero [17] = experiment: cells; type: functional, cell-based; conditions: Chlorocebus sabaeus
[18] = biological target: Fructose-bisphosphate aldolase (Mycobacterium tuberculosis, UniProt P9WQA3); experiment: Fluorescence-based biochemical high throughput dose response assay for inhibitors of the fructose-bisphosphate aldolase (FBA) of M. tuberculosis.; type: functional
Chain of Fructose-bisphosphate aldolase (P9WQA3 whole entry): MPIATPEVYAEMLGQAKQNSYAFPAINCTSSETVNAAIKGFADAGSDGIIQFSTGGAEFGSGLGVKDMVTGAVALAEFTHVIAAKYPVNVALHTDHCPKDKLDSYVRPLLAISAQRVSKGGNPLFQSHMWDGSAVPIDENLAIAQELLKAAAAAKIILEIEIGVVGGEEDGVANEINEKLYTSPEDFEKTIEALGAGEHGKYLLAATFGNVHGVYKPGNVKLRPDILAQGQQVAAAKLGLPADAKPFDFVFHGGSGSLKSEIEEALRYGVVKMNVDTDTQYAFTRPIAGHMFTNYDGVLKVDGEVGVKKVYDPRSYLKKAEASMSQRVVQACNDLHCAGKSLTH

Vero [19] = experiment: cells; type: functional; conditions: Chlorocebus sabaeus
[20] = biological target: T4, High affinity choline transporter 1; experiment: CHT inhibitors, dose response, cell-based, 5-point CRC, membrane potential dye (AID 504840); type: functional
Vero [21] = experiment: West Nile virus antiviral activity, cell-based, CPE readout (AID 1621); type: functional; conditions: Chlorocebus sabaeus

For CCOc1ccc2[nH]c(NCCO)nc2c1, the EC50 [1] was > 100 µM (not active), the EC50 [2] was 0.205 µM (active) and the EC50 [3] was > 112 µM (not active).

With O=C(Oc1ccc(-c2cnc3ccccc3n2)cc1)c1ccc(Br)o1 the EC50 (Estrogen receptor) was 6.97 µM (active) and the IC50 [4] was > 69.5 µM (not active).

In the case of O=C(O)C(C(=O)/C=C/c1ccco1)=C1SCCS1, the IC50 [5] is reported as 21.9 µM (not active) and the IC50 (Bcl-2-like protein 1) is reported as > 109 µM (not active).

For Cc1ccc(S(=O)(=O)N2Cc3ccccc3CC2C(=O)Nc2ccc3c(c2)OCO3)cc1 (stereo not given), the IC50 (Genome polyprotein) was > 49.8 µM (not active).

For Cc1sc2ncnc(SCC(=O)NC(=O)c3cccn3C)c2c1C, the IC50 [6] was 3.97 µM (active), the IC50 [7] was 6.6 µM (active) and the EC50 [8] was 7.84 µM (active).

In the case of O=C(Nc1ncnc2c1ncn2C1OC(COC(=O)c2ccccc2)C(F)C1O)c1ccccc1 (stereo not given), the IC50 [9] is reported as > 100 µM (not active).

For CCCNc1nc(-c2ccccc2)c(C(=O)OCC)cc1C#N, the EC50 [10] was 16.3 µM (active), the EC50 (BJ [11]) was 4.54 µM (inconclusive) and the EC50 (BJ [12]) was 8.98 µM (inconclusive). The IC50 [13] was 4.2 µM (active) and the EC50 (BJ [14]) was 26 µM (active).

With C=C(NNc1c(Cl)c(Cl)nc(C(=O)O)c1Cl)c1ccc2cc(OC)ccc2c1 the IC50 (NADPH oxidase 1) was > 17 µM (not active).

With CCCNC(=O)c1cccc(-n2sc3ccccc3c2=O)c1 the IC50 [15] was 18.4 µM (active).

For CN1CCN(CCNC(=O)c2ccc3nc(-c4ccc(F)cc4)c(-c4ccc(F)cc4)nc3c2)CC1, the IC50 [16] was 1.58 µM (active), the IC50 (Vero [17]) was > 25 µM (active) and the IC50 [18] was > 1.11 µM (active). For the same molecule, the CC50 (Vero [19]) was 16.9 µM (active), the IC50 [20] was 4.58 µM (active) and the IC50 (Vero [21]) was 21.7 µM (active).
